How the values were obtained:
[1] = biological target: T1, HCV NS3/4A protease GT1a WT (Hepatitis C virus genotype 1a, UniProt P27958, C1185S); type: biochemical; settings: for Ki: 2 nM protease preincubated 1 h at room temperature with inhibitor, pH 7.5, 200 nM fluorogenic substrate, Morrison equation global fit, error from global fit of at least three replicates; for Fold increase in potency against WT compared with the parent compound: relative to parent compound, WT protease
T1 construct: His tag (cleaved yes); made in house; host or cells: Escherichia coli BL21(DE3), pET28a

[2] = biological target: T2, HCV NS3/4A protease D168A variant (Hepatitis C virus genotype 1a, UniProt P27958, C1185S/D1194A); type: biochemical; settings: for Ki: 2 nM protease preincubated 1 h at room temperature with inhibitor, pH 7.5, 200 nM fluorogenic substrate, Morrison equation global fit, error from global fit of at least three replicates
T2 construct: His tag (cleaved yes); made in house; host or cells: Escherichia coli BL21(DE3), pET28a

[3] = tested on: HCV NS3/4A protease D168A variant; type: biochemical, Hepatitis C virus genotype 1a

T1 sequence (P27958 1027-1208 C1185S): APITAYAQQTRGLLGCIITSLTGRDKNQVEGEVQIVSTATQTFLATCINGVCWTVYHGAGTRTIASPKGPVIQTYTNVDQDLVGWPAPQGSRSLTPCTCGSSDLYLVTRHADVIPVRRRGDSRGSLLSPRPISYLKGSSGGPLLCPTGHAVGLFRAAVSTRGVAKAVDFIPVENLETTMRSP
T2 sequence (P27958 1027-1208 C1185S/D1194A): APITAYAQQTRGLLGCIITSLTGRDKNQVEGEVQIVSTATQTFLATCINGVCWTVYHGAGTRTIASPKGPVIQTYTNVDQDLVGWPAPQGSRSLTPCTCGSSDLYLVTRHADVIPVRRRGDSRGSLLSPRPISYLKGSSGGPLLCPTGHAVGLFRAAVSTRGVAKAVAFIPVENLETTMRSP

Row | Compound | Ki [1] | Ki [2] | Fold change of Ki, D168A relative to WT [3] | Fold increase in potency against WT compared with the parent compound [1] | Fold increase in potency against D168A compared with grazoprevir [2] | Fold increase in potency against D168A compared with the parent compound [2]
1 | COC(=O)N[C@H](C(=O)N[C@H]1CCCCC/C=C\[C@@H]2C[C@@]2(C(=O)NS(=O)(=O)C2(C)CC2)NC(=O)[C@@H]2C[C@@H](Oc3nc4cc(OC)ccc4nc3C)CN2C1=O)C(C)C [P4P5-1B] | 13 ± 0.8 nM | 102 ± 6.8 nM | 8 fold |  |  | 
2 | CCC1(OC(=O)N[C@H]2CCCCC/C=C\[C@@H]3C[C@@]3(C(=O)NS(=O)(=O)C3(C)CC3)NC(=O)[C@@H]3C[C@@H](Oc4nc5cc(OC)ccc5nc4C)CN3C2=O)CCCC1 [P4-5] | 1.29 ± 0.05 nM | 21.7 ± 2.3 nM | 17 fold |  |  | 
3 | CCc1nc2ccc(OC)cc2nc1O[C@@H]1C[C@H]2C(=O)N[C@]3(C(=O)NS(=O)(=O)C4CC4)C[C@H]3/C=C\CCCCC[C@H](NC(=O)OC(C)(C)C)C(=O)N2C1 [5172-mcP1P3, reference compound] | 3.29 ± 0.52 nM | 82.4 ± 4.4 nM |  |  |  | 
4 | COc1ccc2nc(C)c(O[C@@H]3C[C@H]4C(=O)N[C@]5(C(=O)NS(=O)(=O)C6(C)CC6)C[C@H]5/C=C\CCCCC[C@H](NC(=O)OC5(C)CCC5)C(=O)N4C3)nc2c1 [P4-2] | 1.4 ± 0.13 nM | 46.4 ± 3.4 nM | 33 fold | 4 fold |  | 
5 | COc1ccc2nc(C)c(O[C@@H]3C[C@H]4C(=O)N[C@]5(C(=O)NS(=O)(=O)C6(C)CC6)C[C@H]5/C=C\CCCCC[C@H](NC(=O)OC5CCCCC5)C(=O)N4C3)nc2c1 [P4-6] | 0.94 ± 0.25 nM | 12.7 ± 1.2 nM | 14 fold |  |  | 
6 | COc1ccc2nc(C)c(O[C@@H]3C[C@H]4C(=O)N[C@]5(C(=O)NS(=O)(=O)C6(C)CC6)C[C@H]5/C=C\CCCCC[C@H](NC(=O)OC5C[C@@H]6C[C@@H]6C5)C(=O)N4C3)nc2c1 (stereo partly shown) [P4-7] | 0.54 ± 0.2 nM | 2.3 ± 0.7 nM | 4 fold | approximately 6.5 fold | ~20 fold | ~20 fold
7 | COC(=O)NC1(C(=O)N[C@H]2CCCCC/C=C\[C@@H]3C[C@@]3(C(=O)NS(=O)(=O)C3(C)CC3)NC(=O)[C@@H]3C[C@@H](Oc4nc5cc(OC)ccc5nc4C)CN3C2=O)CCCC1 [P4P5-5] | 31 ± 2.74 nM | 931 ± 70 nM | 30 fold |  |  | 
8 | COc1ccc2nc(C)c(O[C@@H]3C[C@H]4C(=O)N[C@]5(C(=O)NS(=O)(=O)C6(C)CC6)C[C@H]5/C=C\CCCCC[C@H](NC(=O)OC5(C)CC5)C(=O)N4C3)nc2c1 [P4-1] | 4.44 ± 0.3 nM | 27.9 ± 4.1 nM | 6 fold |  |  | ~2 fold
